Literature values, collected in US20100028276A1, “SUNSCREEN COMPOSITIONS” (priority 2007, published 2010).

Columns and labels:
[1] = uterine wet weight, cell height, cell proliferation assays

For `Cc1ccc(C=C2C(=O)C3(C)CCC2C3(C)C)cc1` (stereo not drawn) [4-methyl-benzylidene camphor, 3-(4-methylbenxylidene) camphor], the “effect on growth of cancer cells” value (cancer cells) is listed as “made cancer cells grow more rapidly” and the estrogenicity [1] is listed as “highly estrogenic”.

For `COc1ccc(C(=O)c2ccccc2)c(O)c1` [benzophenone-s, Benzophenone-3], the “effect on growth of cancer cells” value (cancer cells) is listed as “made cancer cells grow more rapidly” and the estrogenicity [1] is listed as “highly estrogenic”.

For `CC1CC(OC(=O)c2ccccc2O)CC(C)(C)C1` (stereo not drawn) [homosalate], the “effect on growth of cancer cells” value (cancer cells) is listed as “made cancer cells grow more rapidly”.

In the case of `CCCCC(CC)COC(=O)c1ccc(N(C)C)cc1` (stereo not drawn) [octyl-dimethyl-PABA], the “effect on growth of cancer cells” value (cancer cells) is given as “made cancer cells grow more rapidly”.
